Biological target: T1, PPARγ2/RXR (Homo sapiens, UniProt P37231)
T1 construct: host or cells: HEK293T, with (A8) or without (A9) co-expressed hGLP-1R
T1 sequence (P37231 1-505): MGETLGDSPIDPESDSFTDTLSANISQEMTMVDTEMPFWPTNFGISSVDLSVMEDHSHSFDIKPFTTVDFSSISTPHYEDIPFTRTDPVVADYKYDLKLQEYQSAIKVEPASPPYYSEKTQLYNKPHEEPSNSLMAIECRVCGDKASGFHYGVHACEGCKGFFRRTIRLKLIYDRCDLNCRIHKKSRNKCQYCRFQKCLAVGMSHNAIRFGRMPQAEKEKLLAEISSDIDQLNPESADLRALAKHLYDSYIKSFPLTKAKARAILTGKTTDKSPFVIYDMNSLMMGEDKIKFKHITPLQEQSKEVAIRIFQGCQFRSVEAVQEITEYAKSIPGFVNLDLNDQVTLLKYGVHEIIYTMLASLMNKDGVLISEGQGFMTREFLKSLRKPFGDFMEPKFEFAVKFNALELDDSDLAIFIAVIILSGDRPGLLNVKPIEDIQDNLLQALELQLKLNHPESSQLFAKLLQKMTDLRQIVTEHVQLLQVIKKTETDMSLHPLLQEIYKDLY
T1 sequence (P19793 1-462 partner): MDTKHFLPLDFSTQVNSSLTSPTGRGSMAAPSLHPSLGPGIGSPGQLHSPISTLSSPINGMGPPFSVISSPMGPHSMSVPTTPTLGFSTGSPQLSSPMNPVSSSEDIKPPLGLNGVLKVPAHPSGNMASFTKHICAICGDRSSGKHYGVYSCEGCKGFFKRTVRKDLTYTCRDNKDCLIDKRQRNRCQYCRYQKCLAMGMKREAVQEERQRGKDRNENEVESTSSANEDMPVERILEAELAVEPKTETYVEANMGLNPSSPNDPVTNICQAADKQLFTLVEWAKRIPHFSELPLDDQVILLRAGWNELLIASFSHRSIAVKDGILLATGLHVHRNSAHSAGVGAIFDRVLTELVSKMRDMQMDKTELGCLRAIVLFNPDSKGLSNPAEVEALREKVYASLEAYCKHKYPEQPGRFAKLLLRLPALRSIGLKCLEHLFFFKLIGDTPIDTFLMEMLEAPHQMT
Experiment: RXR-Rluc8 / PPARγ2-YFP heterodimerization (BRET) in hGLP-1R(+) HEK293T cells
Assay type: cell-based
Settings: GLP-1R (+), 1μM
Protocol: HEK293T cells (700,000 per well) were seeded in six-well plates and incubated to 70% confluency in DMEM (10% FBS, 1% Pen/Strep). Twenty-four hours following seeding, transient transfections were performed using Lipofectamine 2000 (catalogue no. 11668019, Invitrogen) according to the manufacturer’s protocol without including additional transformation carrier DNA.
Twenty-four hours following transfection, HEK293T cells or MIN6 cells were washed with PBS and resuspended in FluoroBrite phenol red-free complete media (catalogue no. A1896701, Life Technologies) containing 5% FBS and 2 mM of L-glutamine (catalogue no. 25030081, Life Technologies). 100,000 cells per well were plated into poly-D-lysine-coated (catalogue no. P6403, Sigma-Aldrich) 96-well white polystyrene LumiNunc plates (catalogue no. 10072151, Thermo Fisher Scientific). After 24 h, the media was replaced with PBS (catalogue no. 10010056, Gibco) containing 10 μM of coelenterazine-h (catalogue no. S2011, Promega) or 1:500 dilution of NanoGlo (catalogue no. N1110, Promega). BRET measurements were taken every 30 s–2 min using a PHERAstar FS multi-mode microplate reader. Baseline measurements were taken after an initial 5 min of incubation with coelenterazine-h or NanoGlo-containing PBS after which cells were then treated with either vehicle (PBS) or respective ligands. The resulting ligand-specific ratiometric BRET signals were normalized to vehicle producing the ‘ligand-induced BRET ratio’[37], followed by an additional normalization step to well-specific baseline readings. Ligand-induced measurements on the temporal scale is represented as the subsequent measurement after time point zero. Positive or negative incremental AUC (+iAUC/−iAUC) were calculated where noted. Each experiment was independently performed at least three times, each with at least three technical replicates for each group.
Untagged hGLP-1R was purchased from Sino Biological Inc. (catalogue no. HG13944-UT), hGLP-1R-GFP was a kind gift from D. Hodson (University of Birmingham), and hGLP-1R-Rluc8 was a kind gift from P. Sexton (Monash University, Melbourne, Australia). Gαs recruitment to the GLP-1R-GFP was quantified using mini-Gαs, a protein probe that translocates to ligand-bound Gαs-coupled G-protein coupled receptors. NES-Nluc-MiniGαs was a gift from K. Pfleger (Harry Perkins Institute of Medical Research, Nedlands, Western Australia, Australia). Intracellular cAMP was measured using the YFP-Epac-Rluc CAMYEL sensor[39]. hGLP-1R-RLUC8 internalization was quantified using the intracellular plasma membrane marker Venus-KRAS[40]. Venus-KRAS was a kind gift from K. Pfleger. GLP-1R-Rluc8 lysosomal colocalization was measured using Lamp1-mNeonGreen. Lamp1-mNeonGreen was a gift from D. Gadella (Addgene plasmid no. 98882). Time-dependent RXR/PPARγ heterodimerization was measured using RXR-Rluc8 and PPARγ2-YFP, both of which were kind gifts from V. Ollendorf[41].

RXR/PPARγ Heterodimerization (AUC), +iAUC (replicate 1): 81.74
RXR/PPARγ Heterodimerization (AUC), +iAUC (replicate 2): 115.10
RXR/PPARγ Heterodimerization (AUC), +iAUC (replicate 3): 84.31
RXR/PPARγ Heterodimerization (AUC), +iAUC (replicate 4): 42.82
RXR/PPARγ Heterodimerization (AUC), +iAUC (replicate 5): 35.86
RXR/PPARγ Heterodimerization (AUC), +iAUC (replicate 6): 49.17
RXR/PPARγ Heterodimerization (AUC), +iAUC (replicate 7): 59.85
RXR/PPARγ Heterodimerization (AUC), +iAUC (replicate 8): 106.60
Structure (SMILES): CCO[C@@H](Cc1ccc(OCCc2ccc(OS(C)(=O)=O)cc2)cc1)C(=O)O [tesaglitazar, (S)-2-ethoxy-3-(4-(4-((methylsulfonyl)oxy)phenethoxy)phenyl) propanoic acid]
